How the values were obtained:
[1] = system: Ab15421 (rabbit polyclonal antibody to posaconazole); assay: Specificity of the immunoassay: cross-reactivity to antifungal triazoles; assay type: binding; settings: Ab15421 with POS-IV G6PDH; for Cross-reaction of Ab15421 with other azole antifungals (in words): human serum samples, 10 μg/mL; for Cross-reactivity (%): triazole 20 μg/ml added to Posaconazole 10 μg/ml vs Posaconazole 10 μg/ml control, human serum
Excerpt: Antibodies obtained using any of the disclosed techniques are screened or purified not only for their ability to react with posaconazole, but for a low cross-reactivity with potential interfering substances. “Cross-reactivity” may be determined in a quantitative immunoassay by establishing a standard curve using known dilutions of the target analyte, posaconazole. The standard curve is then used to calculate the apparent concentration of the interfering substance present in various known amounts in samples assayed under similar condition. The cross-reactivity can be calculated as the apparent concentration divided by the actual concentration multiplied by 100. A certain immunoassay for determining cross-reactivity is a homogeneous enzyme immunoassay using a wild type G6PDH as described in U.S. Pat. No. 3,817,837 or mutant G6PDH engineered to contain a cysteine per subunit as described in U.S. Pat. Nos. 6,033,890, 6,090,567 and 6,455,288. Furthermore, the cross-reactivity can be determined in the same type of immunoassay in which the antibody will ultimately be used.
To human serum negative for antifungal azoles was added posaconazole dissolved in methanol to achieve a concentration of 10 μg/mL of posaconazole. […]
The assay was calibrated as described in Example 8 using Enzyme Conjugate Reagent NB051:154 containing conjugate POS-IV G6PDH and Antibody Reagent NB051:154 containing Ab15421. The testing was performed on the HITACHI 917. The samples were quantified from the calibration curve generated.

[2] = cited from earlier work
[3] = system: Ab15421 (rabbit polyclonal antibody to posaconazole); assay: Homogeneous enzyme immunoassay calibration curve (POS-IV G6PDH conjugate and Ab15421) in pooled human serum; assay type: binding; settings: HITACHI 917, 340 nm
Procedure: Ab15421 was used to measure enzyme activity, generate a calibration curve, and evaluate assay precision, accuracy and specificity. Ab15421 was added into the antibody diluent to prepare the antibody reagent. The antibody reagent included Ab15421 as prepared above, buffer, stabilizers, preservatives, and the substrates for the enzyme conjugate nicotinamide adenine dinucleotide (NAD^+) and glucose-6-phosphate. Enzyme conjugate POS-IV G6PDH was added into the conjugate reagent to prepare the enzyme conjugate reagent. The enzyme conjugate reagent included the conjugate, buffer, stabilizers and preservatives. Enzyme conjugate POS-IV G6PDH was used with Ab15421 in examples below.
Ab15421 was added into the antibody diluent to prepare the antibody reagent. The antibody reagent included Ab15421 as prepared above, buffer, stabilizers, preservatives, and the substrates for the enzyme conjugate NAD^+ and glucose 6 phosphate. Enzyme conjugate POS-IV G6PDH or a label protein including alkaline phosphatase, β-galactosidase and horse radish peroxidase was added into the conjugate reagent to prepare the enzyme conjugate reagent. The enzyme conjugate reagent included the conjugate, buffer, stabilizers and preservatives.
The posaconazole antibodies and enzyme conjugates were used in a homogeneous assay format to detect posaconazole samples. Posaconazole containing sample was incubated with antibody reagent followed by the addition of the enzyme conjugate reagent. The enzyme conjugate activity decreased upon binding to Ab15421. The enzyme conjugate, which was not bound to Ab15421, catalyzed the oxidation of glucose 6-phosphate (G6P). The oxidation of G6P was coupled with the reduction of NAD^+ to NADH, which was measured at 340 nm. The change in the absorbance at 340 nm was measured spectrophotometrically. The posaconazole concentration in a sample was measured in terms of G6PDH activity. The increase in the rate at 340 nm was due to the formation of NADH and was proportional to the enzyme conjugate activity. An assay curve was generated using posaconazole added into serum negative for posaconazole. The assay rate increased with increasing the concentration of free drug in the sample.
Posaconazole was dissolved in methanol to give a stock solution of 1000 μg/mL. Pooled human serum was aliquoted in 10 mL portions. Posaconazole stock solution was added to the aliquots of human serum in preparing a series of known concentrations of posaconazole calibrators ranging from 0 to 16 μg/mL. The assay was performed using Enzyme Conjugate Reagent NB051:154 containing conjugate POS-IV G6PDH and Antibody Reagent NB051:154 containing Ab15421. Calibration curves were generated on the HITACHI 917 automated clinical chemistry analyzer, as described in Example 7 by measuring each level in duplicate.

Structure (SMILES) | Cross-reaction of Ab15421 with other azole antifungals (in words) [1] | Cross-reactivity (%) [1] [%] | Increase of bioavailability on coadministration with food ([2]; coadministration with food) | Bioavailability (in words) ([2]; oral, saturable absorption) | Reaction Rate (mA/min) Average of Duplicates ([3]; Posaconazole Conc. 1.0 μg/mL in pooled human serum) [mA/min] | Reaction Rate (mA/min) Average of Duplicates ([3]; Posaconazole Conc. 2.0 μg/mL in pooled human serum) [mA/min] | Reaction Rate (mA/min) Average of Duplicates ([3]; Posaconazole Conc. 4.0 μg/mL in pooled human serum) [mA/min] | Reaction Rate (mA/min) Average of Duplicates ([3]; Posaconazole Conc. 8.0 μg/mL in pooled human serum) [mA/min] | Reaction Rate (mA/min) Average of Duplicates ([3]; Posaconazole Conc. 16.0 μg/mL in pooled human serum) [mA/min]
C[C@@H](c1ncncc1F)[C@](O)(Cn1cncn1)c1ccc(F)cc1F [Voriconazole] | did not crossreact | <0.01 |  |  |  |  |  |  | 
CC[C@@H]([C@H](C)O)n1ncn(-c2ccc(N3CCN(c4ccc(OC[C@@H]5CO[C@@](Cn6cncn6)(c6ccc(F)cc6F)C5)cc4)CC3)cc2)c1=O [Posaconazole, 4-[4-[4-[4-[[(3R,5R)-5-(2,4-difluorophenyl)tetrahydro-5-(1H 1,2,4-triazol-1-ylmethyl)-3-furanyl]methoxy]phenyl]-1-piperazinyl]phenyl]-2-[(1S,2S)-1-ethyl-2-hydroxypropyl]-2,4-dihydro-3H-1,2,4-triazol-3-one] |  |  | up to 4 fold | low and highly variable bioavailability | 165.7 | 235.5 | 304.7 | 371.7 | 409.4
OC(Cn1cncn1)(Cn1cncn1)c1ccc(F)cc1F [Fluconazole] | did not crossreact | <0.01 |  |  |  |  |  |  | 

From patent publication US9920136B2, “Posaconazole immunoassays” (ARK Diagnostics, Inc., priority 2013, dated 2018)
